Laboratory results reported in US6583283B1, “Polymorphic forms of cipamfylline” (SmithKline Beecham Corporation, priority 1997, dated 2003).
One block for each compound: values may come before it.

Assays:
Format in all cases: physicochemical
[1] = Solubility in recrystallization solvents; details: solvents marked with an asterisk, such as toluene or water
[2] = Compression and grinding study; details: for Stability to compression / Stability to grinding: polymorphic form followed by IR
Experimental: These spectra were recorded using a Spectra-Tech Plan II microscope coupled to a P-E 1760 FTIR spectrometer (64-256 scans, ratio mode, MCT detector, 4 cm^−1 resolution, dry air purge). Spectra of samples without sample preparation were obtained by mounting crystals on a diamond window. Crushed crystals were prepared using a Spectra-Tech micro-Sample Plan (a compression cell) fitted with diamond windows. A stereo microscope was used to observe the behavior of the crystals during compression. After compression, the diamond windows were separated and a spectrum was recorded of the material adhering to one of the windows.

[3] = Heats of solution in methanol and acetone; details: for Heat of solution, Acetone / Heat of solution, Methanol: endothermic; for Heat of solution, Acetone: solvent acetone; for Heat of solution, Methanol: solvent methanol
Experimental: Heats of solution were determined using acetone and methanol as suitable solvents. Different polymorphic forms give rise to different heats of solution. […] The value of HT, the heat of transition, is equal to the difference in crystal lattice energy of the two forms and is the same in both solvents. This is predicted since individual enthalpies are solvent dependent but difference are not. […] Heats of solution for Form IV are in progress.

[4] = Thermal analysis (thermomicroscopy, annealing); details: for Polymorphic form after annealing (by IR): 10° C./min from ambient to ca. 250° C., held ½-1 hour, slow cooling to room temperature
Experimental: Differential Scanning Calorimetry (DSC) could not differentiate the three forms of Cipamfylline. […] However, when the heating rate was reduced sufficiently, the melting endotherm appeared as a fused melt, i.e. two components melting. This behavior was common to both Forms I and II.
The onset of sublimation was different for each form and continued over a wide temperature range (130-290° C. on a non-calibrated instrument). This is not evident on the DSC thermograms. Melting occurred over a range (310-323° C. on a non-calibrated instrument) for all three forms. The possibility of two components melting consecutively could not be distinguished. The sublimate was collected for all three forms and analyzed by IR and NMR.
The annealing procedure consisted of heating at 10° C./min from ambient to ca. 250° C. and holding at this point for ½-1 hour, then allowing the sample to cool slowly to room temperature.
This could explain the similarity in melting points of the three forms.

Crystalline stability = details: Forms I, II and IV compared
Description: Form I is characterized by a minimum of five years crystalline stability.

Solubility in solvent [1]: particularly low solubility
SMILES: Nc1nc2c([nH]1)c(=O)n(CC1CC1)c(=O)n2CC1CC1 [Cipamfylline, 1,3-di-cyclopropylmethyl-8-amino xanthine]

Stability to compression [2]: stable
Stability to grinding [2]: stable
Heat of solution, Acetone ([3]; listed as 1): 3.93 kcal/mol
Heat of solution, Methanol ([3]; listed as 1): 4.81 kcal/mol
Relative stability indicated by thermal experiments [4]: the most stable form
Polymorphic form after annealing (by IR) [4]: converted to Form I
Relative stability among the three polymorphs (Crystalline stability): greatest stability
SMILES: Nc1nc2c([nH]1)c(=O)n(CC1CC1)c(=O)n2CC1CC1 [Form I, 1,3-di-cyclopropylmethyl-8-amino xanthine]

Stability to compression [2]: stable to compression
Stability to grinding [2]: not to severe grinding
Relative stability suggested by heats of solution ([3]; Form I vs Form II, both solvents): the more stable form
Heat of solution, Acetone ([3]; listed as 2): 5.59 kcal/mol
Heat of solution, Methanol ([3]; listed as 2): 6.47 kcal/mol
Polymorphic form after annealing (by IR) [4]: converted to Form I
SMILES: Nc1nc2c([nH]1)c(=O)n(CC1CC1)c(=O)n2CC1CC1 [Form II, 1,3-di-cyclopropylmethyl-8-amino xanthine]

Polymorphic conversion under pressure ([2]; under pressure, under some circumstances): convert to Form I
SMILES: Nc1nc2c([nH]1)c(=O)n(CC1CC1)c(=O)n2CC1CC1 [Form IV, 1,3-di-cyclopropylmethyl-8-amino xanthine]
